Assay results published in article PMC6193465 (Journal of the American Chemical Society, 2018).
Like-named read-outs stand apart in the source and are kept apart here. Where no end group is shown, it is not given here.

Tests used:
[1] = tested on: prokaryotic protein synthesis; test: in vitro transcription-translation assay; assay type: biochemical; conditions: read-out: half-maximum inhibitory concentration, inhibition of prokaryotic protein synthesis
[2] = comparison value for 1; cited from earlier work
[3] = aqueous solubility; assay type: physicochemical
[4] = tested on: indicator bacterial strains; test: antibacterial activity, minimum inhibitory concentrations; assay type: cell-based; conditions: range over the strains tested (Table S5)

Substance | IC50 [1] [nM] | aqueous solubility [2] [µM] | aqueous solubility [3] [µM] | minimum inhibitory concentrations [4] [µg/mL] | minimum inhibitory concentrations ([4]; in molar units) [µM]
IASASCTTCICTCSCSS (also: bicyclic or more (positions not given here)) [compound 1, thiostrepton A, reference compound] | 500 ± 40 | 21.88 ± 0.05 | – | – | –
thiostrepton Aa [compound 7] | 260 ± 40 | – | 26.01 ± 0.05 | 0.018 to 0.098 | 0.010 to 0.058
